PMC11434480, “Discovery and Optimization of Ergosterol Peroxide Derivatives as Novel Glutaminase 1 Inhibitors for the Treatment of Triple-Negative Breast Cancer” (Molecules, 2024)

Experiments:
A549 = assay: MTT antiproliferative assay, A549; format: cell-based, human; details: mean of three experiments ± SD
Description: (§1) The in vitro antiproliferative activity of the novel EP derivatives (1a–h, 2a–h, 3a–h, and 4a–h) was evaluated on four different human cancer cell lines (A549, HepG2, MCF-7, and MDA-MB-231) using an MTT assay.
(§2) Cells containing 10% fetal bovine serum (FBS; WISENT, Nanjing, China) were cultured in an L-15 culture medium (L-15, BOSTER, Wuhan, China) in an incubator at 37 °C. The cells were then inoculated into 96-well plates at a density of 5 × 10^3/well, cultured in 100 μL L-15 medium for 24 h, and incubated with the compound to be tested for 48 h. Next, 20 μL of MTT (5 mg/mL) solution was added and incubated at 37 °C for 4 h away from light. A resorption culture medium was then supplemented with 150 μL DMSO per well. The absorbance was measured at 570 nm using an enzymometer (SAFIRE2, Tecan, Swiss Confederation, Männedorf, Switzerland). The cytotoxic activity was presented in terms of half the inhibition rate.

HepG2 = assay: MTT antiproliferative assay, HepG2; format: cell-based, human; details: mean of three experiments ± SD
Description: as §1, §2

MCF-7 = assay: MTT antiproliferative assay, MCF-7; format: cell-based, human; details: mean of three experiments ± SD
Description: as §1, §2

MDA-MB-231 = assay: MTT antiproliferative assay, MDA-MB-231; format: cell-based, human; details: MTT, 48 h, mean of three experiments ± SD
Description: as §1, §2

human GLS1 = target: T1, human GLS1 (Homo sapiens, UniProt O94925); assay: GLS1 inhibitor screening kit in MDA-MB-231 cells; format: cell-based; details: 48 h, read-out: GLS1 inhibition IC50
T1 sequence (O94925 55-669): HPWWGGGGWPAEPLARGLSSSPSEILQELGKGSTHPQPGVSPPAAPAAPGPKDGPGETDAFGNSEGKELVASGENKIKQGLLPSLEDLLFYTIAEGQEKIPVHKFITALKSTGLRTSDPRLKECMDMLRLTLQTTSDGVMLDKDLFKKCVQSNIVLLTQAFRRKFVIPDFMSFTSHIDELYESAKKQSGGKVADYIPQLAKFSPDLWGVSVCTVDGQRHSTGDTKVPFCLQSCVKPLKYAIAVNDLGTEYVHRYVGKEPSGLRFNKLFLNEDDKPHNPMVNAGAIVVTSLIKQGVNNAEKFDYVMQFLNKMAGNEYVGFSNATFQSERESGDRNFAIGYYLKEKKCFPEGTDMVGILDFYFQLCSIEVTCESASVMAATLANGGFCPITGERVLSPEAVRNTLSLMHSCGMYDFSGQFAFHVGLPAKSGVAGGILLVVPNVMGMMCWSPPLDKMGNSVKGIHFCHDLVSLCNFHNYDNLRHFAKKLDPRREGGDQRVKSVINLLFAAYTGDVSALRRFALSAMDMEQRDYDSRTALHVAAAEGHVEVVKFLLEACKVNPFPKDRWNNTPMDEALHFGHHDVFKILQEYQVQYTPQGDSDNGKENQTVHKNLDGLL
Description: The GLS1 inhibitory activity of compound 3g in MDA-MB-231 cells was evaluated using a GLS1 inhibitor screening kit.
MDA-MB-231 cells were cultured for 24 h and then incubated with different concentrations of 3g or 0.1%DMSO for 48 h and washed with PBS 1–2 times. The cells were then collected, subjected to ultrasound in an ice bath for 5 min, and centrifuged at 4 °C and 1200 g for 15 min. Next, the GLS1 activity in human GLS1 was evaluated according to the manufacturer’s guidelines using a GLS1 screening kit (Sangon Biotech #D799306, Shanghai, China) in a 96-well plate (Corning # 351172, New York, NY, USA).

SMILES | IC50 (A549; 48 h) | IC50 (HepG2; 48 h) | IC50 (MCF-7; 48 h) | IC50 (MDA-MB-231) | IC50 (A549; Homo sapiens, A549, 48 h) | IC50 (HepG2; Homo sapiens, HepG2, 48 h) | IC50 (MCF-7; Homo sapiens, MCF7, 48 h) | IC50 (MDA-MB-231; Homo sapiens, MDA-MB-231) | IC50 (human GLS1)
N.N.[Cl][Pt][Cl] [Cisplatin, reference compound] | 11.6 ± 0.38 µM | 6.29 ± 0.3 µM | 4.23 ± 0.24 µM | 10.4 ± 0.34 µM | – | – | – | – | –
CC(C)C(C)C=CC(C)C1CCC2C1(C)CCC1C23C=CC2(CC(OC(=O)c4ccccc4C(=O)Nc4ccc(F)cc4)CCC12C)OO3 (centres unmarked) [Compound 4f, Ergosterol peroxide-3-(2-((4-fluorophenyl)carbamoyl)benzoate)] | – | – | – | – | 18.8 ± 0.64 µM | 9.02 ± 0.87 µM | 9.64 ± 0.51 µM | 13.4 ± 1.24 µM | –
CC(C)C(C)C=CC(C)C1CCC2C1(C)CCC1C23C=CC2(CC(OC(=O)CCCC(=O)Nc4ccccc4)CCC12C)OO3 (centres unmarked) [Compound 3e, Ergosterol peroxide-3-(5-oxo-5-(phenylamino)pentanoate)] | – | – | – | – | 10.5 ± 0.79 µM | 14.9 ± 1.13 µM | 11.6 ± 0.66 µM | 4.78 ± 0.41 µM | –
CC(C)[C@@H](C)/C=C/[C@@H](C)[C@H]1CC[C@@H]2[C@]1(C)CC[C@H]1[C@]23C=C[C@]2(C[C@@H](O)CC[C@]12C)OO3 [EP, Ergosterol peroxide] | – | – | – | – | 15 ± 1.27 µM | 18.1 ± 1.71 µM | 19.4 ± 1.5 µM | 17.3 ± 1.05 µM | 33.7 µM
CC(C)C(C)C=CC(C)C1CCC2C1(C)CCC1C23C=CC2(CC(OC(=O)c4ccccc4C(=O)Nc4nc5ccc(F)cc5s4)CCC12C)OO3 (centres unmarked) [Compound 4d, Ergosterol peroxide-3-(2-((6-fluorobenzo[d]thiazol-2-yl)carbamoyl)benzoate)] | – | – | – | – | 8.99 ± 0.81 µM | 15.3 ± 1.31 µM | 10.6 ± 0.52 µM | 11.3 ± 0.44 µM | –
CC(C)C(C)C=CC(C)C1CCC2C1(C)CCC1C23C=CC2(CC(OC(=O)CCCC(=O)Nc4ccc5ccccc5c4)CCC12C)OO3 (centres unmarked) [Compound 3h, Ergosterol peroxide-3-(5-(naphthalen-2-ylamino)-5-oxopentanoate)] | – | – | – | – | 9.3 ± 0.66 µM | 13.8 ± 1.3 µM | 8.65 ± 0.73 µM | 4.98 ± 0.84 µM | –
CC(C)C(C)C=CC(C)C1CCC2C1(C)CCC1C23C=CC2(CC(OC(=O)c4ccccc4C(=O)Nc4ccc5ccccc5c4)CCC12C)OO3 (centres unmarked) [Compound 4h, Ergosterol peroxide-3-(2-(naphthalen-2-ylcarbamoyl)benzoate)] | – | – | – | – | 10.1 ± 1.16 µM | 14.3 ± 1.55 µM | 11.4 ± 0.42 µM | 14.6 ± 0.47 µM | –
CC(C)C(C)C=CC(C)C1CCC2C1(C)CCC1C23C=CC2(CC(OC(=O)CCCC(=O)Nc4nc5ccc(F)cc5s4)CCC12C)OO3 (centres unmarked) [Compound 3d, Ergosterol peroxide-3-(5-((6-fluorobenzo[d]thiazol-2-yl)amino)-5-oxopentanoate)] | – | – | – | – | 9.09 ± 0.64 µM | 14.7 ± 0.35 µM | 8.39 ± 0.34 µM | 10.8 ± 0.53 µM | –
CC(C)C(C)C=CC(C)C1CCC2C1(C)CCC1C23C=CC2(CC(OC(=O)CCCC(=O)Nc4nc5cc(F)ccc5s4)CCC12C)OO3 (centres unmarked) [Compound 3c, Ergosterol peroxide-3-(5-((5-fluorobenzo[d]thiazol-2-yl)amino)-5-oxopentanoate)] | – | – | – | – | 11.4 ± 0.79 µM | 11.9 ± 1.07 µM | 11 ± 0.62 µM | 12 ± 0.72 µM | –
CC(C)C(C)C=CC(C)C1CCC2C1(C)CCC1C23C=CC2(CC(OC(=O)c4ccccc4C(=O)Nc4nncs4)CCC12C)OO3 (centres unmarked) [Compound 4a, Ergosterol peroxide-3-(2-((1,3,4-thiadiazol-2-yl)carbamoyl)benzoate)] | – | – | – | – | 7.07 ± 0.47 µM | 8.08 ± 0.64 µM | 8.2 ± 0.68 µM | 10.2 ± 0.62 µM | –
O=C(Cc1ccccc1)Nc1nnc(CCSCCc2nnc(NC(=O)Cc3ccccc3)s2)s1 [BPTES, reference compound] | – | – | – | – | 49.1 ± 11.6 µM | 60.2 ± 8.35 µM | 21.3 ± 6.89 µM | 9.1 ± 0.26 µM | –
CC(C)C(C)C=CC(C)C1CCC2C1(C)CCC1C23C=CC2(CC(OC(=O)c4ccccc4C(=O)Nc4nccs4)CCC12C)OO3 (centres unmarked) [Compound 4b, Ergosterol peroxide-3-(2-oxo-5-((thiazol-2-yl)carbamoyl)benzoate)] | – | – | – | – | 12.8 ± 1.08 µM | 11 ± 0.76 µM | 12.6 ± 0.94 µM | 15.8 ± 1.26 µM | –
CC(C)C(C)C=CC(C)C1CCC2C1(C)CCC1C23C=CC2(CC(OC(=O)c4ccccc4C(=O)Nc4nc5cc(F)ccc5s4)CCC12C)OO3 (centres unmarked) [Compound 4c, Ergosterol peroxide-3-(2-((5-fluorobenzo[d]thiazol-2-yl)carbamoyl)benzoate)] | – | – | – | – | 11.7 ± 1.02 µM | 11.4 ± 0.98 µM | 10.7 ± 0.47 µM | 7.32 ± 0.58 µM | –
CC(C)C(C)C=CC(C)C1CCC2C1(C)CCC1C23C=CC2(CC(OC(=O)CCCC(=O)Nc4nncs4)CCC12C)OO3 (centres unmarked) [Compound 3a, Ergosterol peroxide-3-(5-((1,3,4-thiadiazol-2-yl)amino)-5-oxopentanoate)] | – | – | – | – | 9.73 ± 0.42 µM | 10.7 ± 0.82 µM | 5.16 ± 0.93 µM | 7.06 ± 0.35 µM | –
CC(C)C(C)C=CC(C)C1CCC2C1(C)CCC1C23C=CC2(CC(OC(=O)CCCC(=O)Nc4nccs4)CCC12C)OO3 (centres unmarked) [Compound 3b, Ergosterol peroxide-3-(5-oxo-5-(thiazol-2-ylamino)pentanoate)] | – | – | – | – | 11.7 ± 0.82 µM | 13.1 ± 1.22 µM | 9.47 ± 0.75 µM | 6.92 ± 0.28 µM | –
CC(C)C(C)C=CC(C)C1CCC2C1(C)CCC1C23C=CC2(CC(OC(=O)CCCC(=O)Nc4ccc(F)cc4)CCC12C)OO3 (centres unmarked) [Compound 3f, Ergosterol peroxide-3-(5-((4-fluorophenyl)amino)-5-oxopentanoate)] | – | – | – | – | 11.1 ± 0.93 µM | 9.79 ± 1.01 µM | 8.09 ± 0.71 µM | 7.19 ± 0.39 µM | –
